Test results taken from the supplement of paper PMC10307832.

Columns and labels:
Assay in all cases: relative viability (nuclei count vs DMSO), 5 days (fraction); higher = more cells survive
[1] = compound: NS(=O)(=O)OC[C@@H]1C[C@@H](n2ccc3c(N[C@H]4CCc5ccccc54)ncnc32)C[C@@H]1O [MLN4924] + Nc1ncn([C@H]2C[C@H](O)[C@@H](CO)O2)c(=O)n1 [Decitabine] (partner 2 µM)
Outline: (§1)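 Medians of duplicate plates are given as relative viability. That measure is the nuclei count in treated wells divided by the count in vehicle wells. Counts were taken on 4× images of lung cancer cell lines in 1536-well plates, 5 days after pin-tool dosing the day after seeding with one drug alone or a fixed anchor-drug dose plus five library-drug doses (not always all listed) in √10 steps.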

[2] = compound: C1CC(C1)(C(=O)O)C(=O)O.[NH2-].[NH2-].[Pt+2] [Carboplatin] + Nc1nc2[nH]cc(CCc3ccc(C(=O)N[C@@H](CCC(=O)O)C(=O)O)cc3)c2c(=O)[nH]1 [Pemetrexed] (partner 0.2 µM)
Outline: as §1

[3] = compound: C1CC(C1)(C(=O)O)C(=O)O.[NH2-].[NH2-].[Pt+2] [Carboplatin] + CC(=O)Nc1cccc(-n2c(=O)n(C3CC3)c(=O)c3c(Nc4ccc(I)cc4F)n(C)c(=O)c(C)c32)c1 [Trametinib] (partner 0.02 µM)
Outline: as §1

[4] = compound: NS(=O)(=O)OC[C@@H]1C[C@@H](n2ccc3c(N[C@H]4CCc5ccccc54)ncnc32)C[C@@H]1O [MLN4924] + Cc1nc(NC(=O)N2CCC[C@H]2C(N)=O)sc1-c1ccnc(C(C)(C)C(F)(F)F)c1 [Alpelisib] (partner 2 µM)
Outline: as §1

Cell Line | relative viability ([1]; first compound 0.04 µM) | relative viability ([1]; first compound 0.1265 µM) | relative viability ([1]; first compound 0.4 µM) | relative viability ([1]; first compound 1.265 µM) | relative viability ([1]; first compound 4 µM) | relative viability ([2]; first compound 0.08 µM) | relative viability ([2]; first compound 0.253 µM) | relative viability ([2]; first compound 0.8 µM) | relative viability ([2]; first compound 2.53 µM) | relative viability ([2]; first compound 8 µM) | relative viability ([3]; first compound 0.08 µM) | relative viability ([3]; first compound 0.253 µM) | relative viability ([3]; first compound 0.8 µM) | relative viability ([3]; first compound 2.53 µM) | relative viability ([3]; first compound 8 µM) | relative viability ([4]; first compound 0.04 µM) | relative viability ([4]; first compound 0.1265 µM) | relative viability ([4]; first compound 0.4 µM) | relative viability ([4]; first compound 1.265 µM) | relative viability ([4]; first compound 4 µM)
NCI-H322M | 0.707 | 0.65 | 0.62 | 0.469 | 0.491 | 0.688 | 0.601 | 0.613 | 0.594 | 0.616 | 0.543 | 0.488 | 0.537 | 0.552 | 0.525 | 0.783 | 0.786 | 0.713 | 0.259 | 0.321
LCLC-97TM1 | 0.188 | 0.156 | 0.133 | 0.0597 | 0.0565 | 0.171 | 0.164 | 0.155 | 0.161 | 0.175 | 0.236 | 0.216 | 0.212 | 0.228 | 0.26 | 0.255 | 0.208 | 0.129 | 0.114 | 0.119
NCI-H596 | 1.09 | 1.1 | 0.933 | 0.97 | 0.727 | 0.533 | 0.473 | 0.548 | 0.464 | 0.475 | 0.846 | 0.845 | 0.722 | 0.645 | 0.518 | 0.468 | 0.61 | 0.426 | 0.664 | 0.52
NCI-H1792 | 0.72 | 0.556 | 0.571 | 0.377 | 0.219 | 1.21 | 0.75 | 0.755 | 0.811 | 0.608 | 0.514 | 0.395 | 0.354 | 0.361 | 0.231 | 0.685 | 0.758 | 0.944 | 0.441 | 0.21
NCI-H1944 | 0.454 | 0.324 | 0.334 | 0.17 | 0.146 | 0.644 | 0.557 | 0.643 | 0.526 | 0.485 | 0.439 | 0.419 | 0.439 | 0.362 | 0.338 | 1.02 | 1.02 | 1.04 | 0.23 | 0.188
NCI-H1755 | 0.644 | 0.545 | 0.526 | 0.378 | 0.245 | 0.436 | 0.371 | 0.437 | 0.443 | 0.386 | 0.823 | 0.78 | 0.752 | 0.82 | 0.7 | 0.835 | 0.638 | 0.475 | 0.172 | 0.145
H3255 | 0.469 | 0.392 | 0.338 | 0.228 | 0.218 | 0.589 | 0.531 | 0.58 | 0.529 | 0.563 | 0.699 | 0.83 | 0.754 | 0.588 | 0.474 | 0.694 | 0.548 | 0.265 | 0.175 | 0.242
NCI-H23 | 0.344 | 0.329 | 0.276 | 0.249 | 0.21 | 0.707 | 0.648 | 0.634 | 0.564 | 0.631 | 0.414 | 0.425 | 0.364 | 0.366 | 0.389 | 0.611 | 0.5 | 0.28 | 0.149 | 0.155
